Measured values from patent US20220168313A1, “HETEROCYCLIC COMPOUNDS AND USES THEREOF” (Nuvation Bio Inc., priority 2019, published 2022).

The molecules below were run against T1, WEE1 kinase enzyme (Homo sapiens, UniProt P30291) (assay: WEE1 IC50 determination, LanthaScreen Terbium Labeled TR-FRET kinase assay). Conditions: WEE1 Enzyme 1 nM, ATP 10 μM, fluorescent-PolyGT substrate 200 nM, 1 h.
T1 construct: purchased Invitrogen, Life Technologies PR7373A
Format: biochemical
Description: IC50 values of the compounds against WEE1 kinase enzyme were determined by LanthaScreen™ Terbium Labeled TR-FRET assay. Kinase assays were performed in 1× kinase buffer (#PV6135, Invitrogen, Life Technologies, Grand Island, N.Y.) where total reaction volume was 10 μL in low-volume 384-well plates (#4511, Corning). Serially diluted compounds (3-fold) were incubated with WEE1 Enzyme (1 nM) (#PR7373A, Invitrogen, Life Technologies, Grand Island, N.Y.) for 10 min; a mixture of ATP (10 μM) (#A1852, Sigma, St. Louis, Mo.) and fluorescent-PolyGT substrate (200 nM) (#PV3610, Invitrogen, Life Technologies, Grand Island, N.Y.) was added and incubated in dark at room temperature for 1 h. After 1 h, 10 μL stop solution containing terbium labeled antibody (4 nM) (#PV3529, Invitrogen, Life Technologies, Grand Island, N.Y.) and EDTA (#E5134, Sigma, St. Louis, Mo.) (20 mM) in TR-FRET dilution buffer (#PV3574, Invitrogen, Life Technologies, Grand Island, N.Y.) were added. Readings were taken in a Synergy Neo plate reader (BioTek, Winooski, Vt.) at single excitation of 340 nm and dual emission at 495 nm and 520 nm respectively.
The % activity of test samples was calculated as (Sample−Min)*100/(Max−Min). [Max: DMSO control, complete reaction with enzyme & DMSO and Min: No enzyme & DMSO]. Percent inhibition (100-% activity) was fitted to the “four-parameter logistic model” in XLfit for determination of IC50 values.

T1 sequence (P30291 whole entry): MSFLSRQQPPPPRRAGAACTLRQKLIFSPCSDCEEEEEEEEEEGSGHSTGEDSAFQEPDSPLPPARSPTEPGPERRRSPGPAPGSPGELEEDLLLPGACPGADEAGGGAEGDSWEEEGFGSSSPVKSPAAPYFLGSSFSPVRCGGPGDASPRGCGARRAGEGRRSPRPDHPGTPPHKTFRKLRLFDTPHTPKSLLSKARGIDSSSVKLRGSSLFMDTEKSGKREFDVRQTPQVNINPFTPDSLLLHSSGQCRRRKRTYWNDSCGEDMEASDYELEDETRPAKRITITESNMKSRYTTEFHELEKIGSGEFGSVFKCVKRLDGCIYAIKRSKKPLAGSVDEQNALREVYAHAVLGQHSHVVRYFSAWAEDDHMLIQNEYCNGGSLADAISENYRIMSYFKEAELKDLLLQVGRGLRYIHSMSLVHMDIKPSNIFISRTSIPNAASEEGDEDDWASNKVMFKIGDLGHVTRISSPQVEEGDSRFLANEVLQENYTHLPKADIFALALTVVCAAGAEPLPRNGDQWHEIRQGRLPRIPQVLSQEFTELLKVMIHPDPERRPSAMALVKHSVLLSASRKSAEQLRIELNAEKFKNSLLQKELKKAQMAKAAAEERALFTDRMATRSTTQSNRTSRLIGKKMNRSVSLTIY

Row | SMILES | IC50
1 | CC(C)N1CCc2ccc(Nc3ncc4c(n3)OCN(c3c(Cl)cccc3Cl)C4=O)cc2C1 [Compound No. 1.43, 3-(2,6-dichlorophenyl)-7-((2-isopropyl-1,2,3,4-tetrahydroisoquinolin-7-yl)amino)-2,3-dihydro-4H-pyrimido[5,4-e][1,3]oxazin-4-one] | 21 nM
2 | CN(C)CC(=O)N1CCc2ccc(Nc3ncc4c(n3)OCN(c3c(Cl)cccc3Cl)C4=O)cc2C1 [Compound No. 1.44, 3-(2,6-dichlorophenyl)-7-((2-(dimethylglycyl)-1,2,3,4-tetrahydroisoquinolin-7-yl)amino)-2,3-dihydro-4H-pyrimido[5,4-e][1,3]oxazin-4-one] | 225 nM

Further molecules by falling IC50, results first:

Row | IC50 | SMILES
3 | 206 nM | CC(C)N1CCc2cc(Nc3ncc4c(n3)OCN(c3c(Cl)cccc3Cl)C4=O)ccc2C1 [Compound No. 1.40, 3-(2,6-dichlorophenyl)-7-((2-isopropyl-1,2,3,4-tetrahydroisoquinolin-6-yl)amino)-2,3-dihydro-4H-pyrimido[5,4-e][1,3]oxazin-4-one]
4 | 145 nM | CN(C)CC(=O)N1CCc2cc(Nc3ncc4c(n3)OCN(c3c(Cl)cccc3Cl)C4=O)ccc2C1 [1.37, 3-(2,6-dichlorophenyl)-7-(2-(2-(dimethylamino)acetyl)-1,2,3,4-tetrahydroisoquinolin-6-ylamino)-2H-pyrimido[5,4-e][1,3]oxazin-4 (3H)-one]
5 | 125 nM | CN(C)CC(=O)N1CCc2cc(Nc3ncc4c(n3)OCN(c3c(Cl)cccc3Cl)C4=O)ccc2C1(C)C [1.48, 3-(2,6-dichlorophenyl)-7-((2-(dimethylglycyl)-1,1-dimethyl-1,2,3,4-tetrahydroisoquinolin-6-yl)amino)-2,3-dihydro-4H-pyrimido[5,4-e][1,3]oxazin-4-one]

These molecules were tested on A427 cells (assay: Cytotoxicity assay in A427 cell line (resazurin, 72 hr)). Conditions: Homo sapiens, A-427; A427 lung epithelial cell line, 72 hr incubation, inhibition of proliferation.
Format: cell-based
Description: A427 (HTB-53; ATCC), a lung epithelial cell line, was seeded in medium (MEM, 41090101; Gibco) at a cell count of 1500 cells per 100 μL per well in a 96 well edge plate (167425; ThermoFisher). Cells were allowed to grow at 37° C. for 24 hr in 5% CO2 environment (culture conditions) in a Nuaire incubator (humidified). Serially diluted test compounds (100 μL) within the desired testing concentration ranges were added to the culture plate and the cells further incubated in culture conditions for 72 hr. The experiment was terminated at the designated incubation time by replacing the medium with 100 μL of 1 mM of resazurin (R7017; Sigma) prepared in culture medium, and the plates were further incubated in culture conditions for 4-6 hr. Fluorescence was recorded using a multimodal plate reader (Biotek Synergy Neo) at an excitation wavelength of 535 nm and emission wavelength of 590 nm to obtain relative fluorescence units. Data were analysed as follows: the background fluorescence (blank containing only medium) value was subtracted from each reading and normalized with the vehicle control (DMSO treated cells) to obtain percent survival/proliferation. […] Potency of compounds in other cell lines (such as A549, As-Pc-1, Panc-10.05, MDA-MB-231, A172, U-87MG) may be determined in an analogous manner.

Row | SMILES | IC50
6 | CC(C)N1CCc2ccc(Nc3ncc4c(n3)OCN(c3c(Cl)cccc3Cl)C4=O)cc2C1 [Compound No. 1.43, 3-(2,6-dichlorophenyl)-7-((2-isopropyl-1,2,3,4-tetrahydroisoquinolin-7-yl)amino)-2,3-dihydro-4H-pyrimido[5,4-e][1,3]oxazin-4-one] | 5500 nM
